Measurements: US20260125378A2, “Heterocyclic Compounds” (BeOne Medicines I GmbH, priority 2023, published 2026)

Key:
[1] = biological target: T1, Full length DGKζ (in-house protein M1-V929) (Homo sapiens, UniProt Q13574); assay: Biochemical DGK IC50 assay (ADP-Glo, lipid micelle substrate), DGKζ; conditions: 1 hour preincubation, 1 hour reaction, room temperature
T1 construct: His (N); TEV site (N); made in house; host or cells: Sf9 insect cells (Bac-to-Bac baculovirus)
In short: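 Full-length human DGKζ (M1-V929, His-TEV tagged, Sf9 baculovirus-expressed) with DAG/PS lipid micelle substrate in octyl glucoside, at room temperature in 50 mM HEPES, 10 mM MgCl2, 0.01 mM CaCl2 buffer.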

[2] = biological target: T2, Full length DGKα (D21-10BG, SignalChem) (Homo sapiens, UniProt P23743); assay: Biochemical DGK IC50 assay (ADP-Glo, lipid micelle substrate), DGKα; conditions: 1 hour preincubation, 1 hour reaction, room temperature
T2 construct: Full length DGKα (D21-10BG, SignalChem); purchased SignalChem D21-10BG
In short: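 Full-length human DGKα with DAG/PS lipid micelle substrate (in octyl glucoside buffer), reacted 1 h at room temperature in 50 mM HEPES, 10 mM MgCl2, 0.01 mM CaCl2, 0.1 mM Na3VO4, 0.01% BSA, 0.005% Tween-20. ADP formed read by ADP-Glo luminescence; IC50 from inhibition across increasing compound concentrations.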

T1 sequence (Q13574 1-929 isoform Q13574-4): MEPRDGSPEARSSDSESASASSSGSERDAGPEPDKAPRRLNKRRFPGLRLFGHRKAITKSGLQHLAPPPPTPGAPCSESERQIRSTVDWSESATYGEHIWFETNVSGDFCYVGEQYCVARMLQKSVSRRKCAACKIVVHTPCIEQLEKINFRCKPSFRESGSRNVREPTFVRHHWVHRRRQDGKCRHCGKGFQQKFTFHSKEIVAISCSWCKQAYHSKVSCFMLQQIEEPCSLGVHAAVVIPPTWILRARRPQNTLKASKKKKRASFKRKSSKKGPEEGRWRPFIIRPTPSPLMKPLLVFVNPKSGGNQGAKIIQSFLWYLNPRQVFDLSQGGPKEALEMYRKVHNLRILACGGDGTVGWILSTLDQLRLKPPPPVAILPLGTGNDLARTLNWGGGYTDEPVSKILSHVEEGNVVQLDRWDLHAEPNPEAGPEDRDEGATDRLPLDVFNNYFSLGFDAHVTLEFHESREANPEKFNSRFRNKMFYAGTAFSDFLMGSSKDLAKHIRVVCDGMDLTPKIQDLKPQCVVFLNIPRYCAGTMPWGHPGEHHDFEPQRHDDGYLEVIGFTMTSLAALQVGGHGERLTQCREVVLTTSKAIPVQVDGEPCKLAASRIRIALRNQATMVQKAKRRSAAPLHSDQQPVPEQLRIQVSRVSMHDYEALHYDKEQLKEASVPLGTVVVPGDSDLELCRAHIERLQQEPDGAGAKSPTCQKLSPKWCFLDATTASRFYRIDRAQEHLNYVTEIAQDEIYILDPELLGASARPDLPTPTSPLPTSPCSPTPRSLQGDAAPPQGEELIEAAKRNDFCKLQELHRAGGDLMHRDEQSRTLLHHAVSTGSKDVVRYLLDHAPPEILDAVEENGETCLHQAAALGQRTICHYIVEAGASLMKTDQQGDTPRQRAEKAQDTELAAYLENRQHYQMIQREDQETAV
T2 sequence (P23743 whole entry): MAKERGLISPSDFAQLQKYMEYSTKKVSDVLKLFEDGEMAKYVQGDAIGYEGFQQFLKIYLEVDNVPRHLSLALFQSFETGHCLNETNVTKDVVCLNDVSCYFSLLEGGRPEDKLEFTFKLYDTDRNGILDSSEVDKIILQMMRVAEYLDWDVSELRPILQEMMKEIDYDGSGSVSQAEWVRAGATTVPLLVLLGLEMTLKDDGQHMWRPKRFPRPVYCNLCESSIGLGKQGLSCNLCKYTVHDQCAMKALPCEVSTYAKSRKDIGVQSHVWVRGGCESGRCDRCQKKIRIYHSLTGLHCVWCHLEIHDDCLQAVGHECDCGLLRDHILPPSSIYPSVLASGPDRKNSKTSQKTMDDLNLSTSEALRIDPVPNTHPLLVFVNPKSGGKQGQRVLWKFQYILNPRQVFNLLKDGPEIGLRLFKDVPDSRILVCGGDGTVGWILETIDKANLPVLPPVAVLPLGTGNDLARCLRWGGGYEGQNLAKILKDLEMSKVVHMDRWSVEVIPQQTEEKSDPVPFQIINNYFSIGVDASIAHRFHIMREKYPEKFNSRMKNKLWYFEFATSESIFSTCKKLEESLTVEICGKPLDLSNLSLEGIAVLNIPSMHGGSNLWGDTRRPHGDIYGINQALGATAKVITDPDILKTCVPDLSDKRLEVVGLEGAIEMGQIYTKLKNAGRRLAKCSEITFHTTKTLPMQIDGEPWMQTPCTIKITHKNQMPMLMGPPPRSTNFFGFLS

| SMILES | IC50 [1] [nM] | IC50 [2] [nM] |
| --- | --- | --- |
| COC[C@H]1CN(C(C)c2ccc3c(c2)OCCO3)[C@H](C)CN1c1nc(=O)n(C)c2c1nc(CC#N)n2C (single isomer, unassigned) [Compound A11a] | 764 | 57800 |
| CC(c1cc2c(cc1F)OCC(C)(C)O2)N1C[C@H](C)N(c2nc(=O)n(C)c3c2nc(CC#N)n3C)C[C@H]1C (single isomer, unassigned) [Compound A69a] | 2 | 1190 |
| CCn1c(CC#N)nc2c(N3C[C@@H](C)N(C(C)c4ccc5c(c4F)OC(C)(C)O5)C[C@@H]3C)c(F)c(=O)n(C)c21 (single isomer, unassigned) [Compound A190b] | 41 | 38200 |
| CC(c1ccc2c(c1)OCCO2)N1C[C@H](C)N(c2c(F)c(=O)n(C)c3c2nc(CC#N)n3C)C[C@H]1C (single isomer, unassigned) [Compound A18b] | 32 | 6380 |
| CCn1c(CC#N)nc2c(N3C[C@@H](C)N(C(C)c4ccc5c(c4Cl)OC(C)(C)O5)C[C@@H]3C)nc(=O)n(C)c21 (single isomer, unassigned) [Compound A172a] | 170 | 132000 |
| CCn1c(CC#N)nc2c(N3C[C@@H](C)N(C(C)c4ccc5c(c4)OC(C)(C)CC5)C[C@@H]3C)nc(=O)n(C)c21 (mixture of isomers) [Compound A94, 2-(6-((2S,5R)-4-(1-(2,2-dimethylchroman-7-yl)ethyl)-2,5-dimethylpiperazin-1-yl)-9-ethyl-3-methyl-2-oxo-3,9-dihydro-2H-purin-8-yl)acetonitrile] | 14 | 23200 |
| CCn1c(=O)nc(N2C[C@@H](C)N(C(C)c3ccc4c(c3)OC(C)(C)CO4)C[C@@H]2C)c2nc(CC#N)n(C)c21 (single isomer, unassigned) [Compound A61a] | 2 | 10100 |
| CCn1c(=O)nc(N2C[C@@H](C)N(C(C)c3ccc4c(c3)OC(C)(C)CO4)C[C@@H]2C)c2nc(CC#N)n(C)c21 (single isomer, unassigned) [Compound A61b] | 420 | 37900 |
| CC[C@@H]1CN(c2nc(=O)n(C)c3c2nc(CC#N)n3C)[C@@H](C)CN1C(C)c1ccc2c(n1)OC(C)(C)CO2 (mixture of isomers) [Compound A159, 2-(6-((2S,5R)-4-(1-(3,3-dimethyl-2,3-dihydro-[1,4]dioxino[2,3-b]pyridin-6-yl)ethyl)-5-ethyl-2-methylpiperazin-1-yl)-3,9-dimethyl-2-oxo-3,9-dihydro-2H-purin-8-yl)acetonitrile] | 11 | 31500 |
| CCn1c(CC#N)nc2c(N3C[C@@H](C)N(C(C)c4c(F)cc5c(c4F)OC(C)(C)O5)C[C@@H]3C)nc(=O)n(C)c21 (single isomer, unassigned) [Compound A176a] | 40 | 13100 |
| CCn1c(CC#N)nc2c(N3C[C@@H](C)N(C(C)c4cccc(CN5CCOCC5)c4)C[C@@H]3C)nc(=O)n(C)c21 (stereo partly drawn) [Compound A142, 2-(6-((2S,5R)-2,5-dimethyl-4-(1-(3-(morpholinomethyl)phenyl)ethyl)piperazin-1-yl)-9-ethyl-3-methyl-2-oxo-3,9-dihydro-2H-purin-8-yl)acetonitrile] | 6300 | > 150000 |
| CC[C@@H]1CN(c2nc(=O)n(C)c3c2nc(CC#N)n3C)[C@@H](C)CN1C(C)c1ccc2ncc(C)nc2c1 (single isomer, unassigned) [Compound A50a] | 4 | 24700 |
| CCn1c(CC#N)nc2c(N3C[C@@H](C)N(C(C)c4ccc5c(c4)OC(C)(C)CO5)C[C@@H]3C)nc(=O)n(C)c21 (single isomer, unassigned) [Compound A60b] | 206 | > 150000 |
| CC(c1cc(F)c2c(n1)OC(C)(C)CO2)N1C[C@H](C)N(c2nc(=O)n(C)c3c2nc(CC#N)n3C)C[C@H]1C (stereo partly drawn) [Compound A164, 2-(6-((2S,5R)-4-(1-(8-fluoro-3,3-dimethyl-2,3-dihydro-[1,4]dioxino[2,3-b]pyridin-6-yl)ethyl)-2,5-dimethylpiperazin-1-yl)-3,9-dimethyl-2-oxo-3,9-dihydro-2H-purin-8-yl)acetonitrile] | 31 | 125000 |
| CC(c1ccc2c(c1)OCCO2)N1C[C@H](C)N(c2c(F)c(=O)n(C)c3c2nc(CC#N)n3C)C[C@H]1C (single isomer, unassigned) [Compound A18a] | 19 | 23600 |
| CC[C@H]1CN(C(C)c2ccc(C(F)(F)F)cc2)[C@H](CC)CN1c1nc(=O)n(C)c2c1nc(CC#N)n2C (single isomer, unassigned) [Compound A149a] | 37 | 1620 |

Now from value to compound:

| IC50 [1] [nM] | IC50 [2] [nM] | SMILES |
| --- | --- | --- |
| 18 | > 150000 | CCn1c(CC#N)nc2c(N3C[C@@H](C)N(C(C)c4ccc(F)c(C(F)(F)F)c4)C[C@@H]3C)nc(=O)n(C)c21 (stereo partly drawn) [Compound A113, 2-(9-ethyl-6-((2S,5R)-4-(1-(4-fluoro-3-(trifluoromethyl)phenyl)ethyl)-2,5-dimethylpiperazin-1-yl)-3-methyl-2-oxo-3,9-dihydro-2H-purin-8-yl)acetonitrile] |
| 6 | 69000 | CCn1c(CC#N)nc2c(N3C[C@@H](C)N(C(C)c4ccc5c(c4)OC(C)(C)C5=O)C[C@@H]3C)nc(=O)n(C)c21 (stereo partly drawn) [Compound A179, 2-(6-((2S,5R)-4-(1-(2,2-dimethyl-3-oxo-2,3-dihydrobenzofuran-6-yl)ethyl)-2,5-dimethylpiperazin-1-yl)-9-ethyl-3-methyl-2-oxo-3,9-dihydro-2H-purin-8-yl)acetonitrile] |
| 410 | 79300 | CCn1c(CC#N)nc2c(N3C[C@@H](C)N(C(C)c4cccc(C)c4)C[C@@H]3C)nc(=O)n(C)c21 (stereo partly drawn) [Compound A45, 2-(6-((2S,5R)-2,5-dimethyl-4-(1-(m-tolyl)ethyl)piperazin-1-yl)-9-ethyl-3-methyl-2-oxo-3,9-dihydro-2H-purin-8-yl)acetonitrile] |
| 4 | 110000 | CC(c1ccc(F)cc1OC(C)(F)F)N1C[C@H](C)N(c2nc(=O)n(C)c3c2nc(CC#N)n3C)C[C@H]1C (stereo partly drawn) [Compound A31, 2-(6-((2S,5R)-4-(1-(2-(1,1-difluoroethoxy)-4-fluorophenyl)ethyl)-2,5-dimethylpiperazin-1-yl)-3,9-dimethyl-2-oxo-3,9-dihydro-2H-purin-8-yl)acetonitrile] |
| 246 | 135000 | CCn1c(CC#N)nc2c(N3C[C@@H](C)N(C(C)c4cc(C(F)(F)F)ccc4F)C[C@@H]3C)nc(=O)n(C)c21 (stereo partly drawn) [Compound A114, 2-(9-ethyl-6-((2S,5R)-4-(1-(2-fluoro-5-(trifluoromethyl)phenyl)ethyl)-2,5-dimethylpiperazin-1-yl)-3-methyl-2-oxo-3,9-dihydro-2H-purin-8-yl)acetonitrile] |
| 165 | 143000 | CCn1c(CC#N)nc2c(N3C[C@@H](C)N(C(C)c4cc(F)cc(C(F)F)c4)C[C@@H]3C)nc(=O)n(C)c21 (stereo partly drawn) [Compound A38, 2-(6-((2S,5R)-4-(1-(3-(difluoromethyl)-5-fluorophenyl)ethyl)-2,5-dimethylpiperazin-1-yl)-9-ethyl-3-methyl-2-oxo-3,9-dihydro-2H-purin-8-yl)acetonitrile] |
| 14 | 88600 | CCn1c(CC#N)nc2c(N3C[C@@H](C)N(C(C)c4ccc5c(c4)OC(C)(C)O5)C[C@@H]3C)nc(=O)n(C)c21 (single isomer, unassigned) [Compound A85b] |
| 31 | 95000 | CCn1c(CC#N)nc2c(N3C[C@@H](C)N(C(C)c4ccc5c(c4)OC(F)(F)CO5)C[C@@H]3C)nc(=O)n(C)c21 (mixture of isomers) [Compound A80, 2-(6-((2S,5R)-4-(1-(3,3-difluoro-2,3-dihydrobenzo[b][1,4]dioxin-6-yl)ethyl)-2,5-dimethylpiperazin-1-yl)-9-ethyl-3-methyl-2-oxo-3,9-dihydro-2H-purin-8-yl)acetonitrile] |
| 975 | > 10000 | COc1cc(F)ccc1C(C)N1C[C@H](C)N(c2nc(=O)n(C)c3c2nc(CC#N)n3C)C[C@H]1C (single isomer, unassigned) [Compound A24a] |
| 103 | 65600 | CCn1c(CC#N)nc2c(N3C[C@@H](C)N(C(C)c4cccc(C(F)(F)F)n4)C[C@@H]3C)nc(=O)n(C)c21 (single isomer, unassigned) [Compound A118b] |
| 291 | 37200 | CCn1c(CC#N)nc2c(N3C[C@@H](C)N(C(C)c4ccc5c(c4F)OC(C)(C)O5)C[C@@H]3C)nc(=O)n(C)c21 (single isomer, unassigned) [Compound A175a] |
| 48 | 124000 | CCn1c(CC#N)nc2c(N3C[C@@H](C)N(C(C)c4ccc5c(c4F)OC(C)(C)CO5)C[C@@H]3C)nc(=O)n(C)c21 (stereo partly drawn) [Compound A71, 2-(9-ethyl-6-((2S,5R)-4-(1-(5-fluoro-3,3-dimethyl-2,3-dihydrobenzo[b][1,4]dioxin-6-yl)ethyl)-2,5-dimethylpiperazin-1-yl)-3-methyl-2-oxo-3,9-dihydro-2H-purin-8-yl)acetonitrile] |
| 156 | 143000 | CCn1c(CC#N)nc2c(N3C[C@@H](C)N(C(C)c4cccc5c4OC(C)(C)O5)C[C@@H]3C)nc(=O)n(C)c21 (stereo partly drawn) [Compound A186, 2-(6-((2S,5R)-4-(1-(2,2-dimethylbenzo[d][1,3]dioxol-4-yl)ethyl)-2,5-dimethylpiperazin-1-yl)-9-ethyl-3-methyl-2-oxo-3,9-dihydro-2H-purin-8-yl)acetonitrile] |
